Laboratory results as given in patent publication US9290478B2, “Substituted quinoxalines as FGFR kinase inhibitors” (ASTEX THERAPEUTICS LTD, priority 2010, dated 2016).

Experiments:
FGFR3 (h) = FGFR3 (h) (Homo sapiens, UniProt P22607); experiment: FGFR3 (enzymatic assay), TR-FRET; type: biochemical; settings: 25 μM ATP; read-out: FGFR3 pIC50 (converted)
Experimental: In a final reaction volume of 30 μL, FGFR3 (h) (40 ng/ml) was incubated with 50 mM HEPES pH 7.5, 6 mM MnCl2, 1 mM DTT, 0.1 mM Na3VO4, 0.01% Triton-X-100, 500 nM Btn-Flt3 and 25 μM ATP in the presence of compound (1% DMSO final). After incubation for 60 minutes at room temperature the reaction was stopped with 2.27 nM EU-anti P-Tyr, 7 mM EDTA, 31.25 nM SA-XL-665 and 0.02% BSA which was present for 60 minutes at room temperature. Time-Resolved Fluorescence Resonance Energy Transfer (TR-FRET) signal (ex340 nm. Em 620 nm, em 655 nm) was measured afterwards and results are expressed in RFU (Relative Fluorescence Units). In this assay, the inhibitory effect of different compound concentrations (range 10 μM to 0.1 nM) was determined and used to calculate an IC50 (M) and pIC50 (−log IC50) value.

VEGFR2 = molecular target: T1, VEGFR2 (Homo sapiens, UniProt P35968); experiment: Biological Assays B: VEGFR2 in vitro kinase inhibitory activity assay; type: biochemical; settings: 0.5 μM ATP, read-out: VEGFR2 pIC50 (converted)
T1 construct: purchased Upstate
T1 sequence (P35968 20-1356): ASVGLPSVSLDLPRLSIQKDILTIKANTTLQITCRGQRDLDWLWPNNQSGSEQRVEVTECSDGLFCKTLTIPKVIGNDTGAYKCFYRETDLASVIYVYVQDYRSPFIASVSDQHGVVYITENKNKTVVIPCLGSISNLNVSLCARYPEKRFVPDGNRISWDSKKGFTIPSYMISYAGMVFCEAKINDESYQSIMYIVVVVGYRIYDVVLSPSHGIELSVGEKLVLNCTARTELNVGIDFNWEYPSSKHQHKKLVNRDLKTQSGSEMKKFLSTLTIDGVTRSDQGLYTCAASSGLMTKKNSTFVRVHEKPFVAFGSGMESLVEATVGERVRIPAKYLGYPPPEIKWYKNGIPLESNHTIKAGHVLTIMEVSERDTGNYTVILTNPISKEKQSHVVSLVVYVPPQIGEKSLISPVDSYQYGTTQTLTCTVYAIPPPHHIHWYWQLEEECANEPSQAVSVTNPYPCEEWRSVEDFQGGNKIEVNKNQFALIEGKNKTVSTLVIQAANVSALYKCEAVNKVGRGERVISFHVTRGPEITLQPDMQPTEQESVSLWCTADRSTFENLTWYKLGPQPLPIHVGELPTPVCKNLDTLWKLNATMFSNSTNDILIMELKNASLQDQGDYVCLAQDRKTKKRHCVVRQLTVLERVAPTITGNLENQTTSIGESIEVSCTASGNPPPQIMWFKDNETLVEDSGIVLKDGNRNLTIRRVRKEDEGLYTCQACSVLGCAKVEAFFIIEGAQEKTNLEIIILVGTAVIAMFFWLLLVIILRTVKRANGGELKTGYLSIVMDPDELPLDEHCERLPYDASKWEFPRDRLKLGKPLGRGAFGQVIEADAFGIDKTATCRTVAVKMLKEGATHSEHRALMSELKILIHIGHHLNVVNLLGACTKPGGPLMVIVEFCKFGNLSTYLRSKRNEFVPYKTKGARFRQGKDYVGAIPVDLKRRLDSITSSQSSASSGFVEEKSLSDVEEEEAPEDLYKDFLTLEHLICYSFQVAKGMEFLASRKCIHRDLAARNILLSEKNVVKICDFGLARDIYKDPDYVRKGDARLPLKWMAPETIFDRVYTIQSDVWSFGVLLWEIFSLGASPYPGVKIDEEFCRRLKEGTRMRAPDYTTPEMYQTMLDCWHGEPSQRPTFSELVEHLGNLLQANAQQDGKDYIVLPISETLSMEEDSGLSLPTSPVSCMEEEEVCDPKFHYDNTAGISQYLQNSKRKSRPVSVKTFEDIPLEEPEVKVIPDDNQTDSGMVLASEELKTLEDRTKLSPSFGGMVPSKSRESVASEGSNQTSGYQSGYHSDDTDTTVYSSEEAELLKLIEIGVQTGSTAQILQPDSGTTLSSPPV
Experimental: (§1) Biological Assays B FGFR3, VEGFR2 and PDGFR In Vitro Kinase Inhibitory Activity Assays
(§2) Enzymes (from Upstate), prepared at 2× final concentration, were incubated with test compounds, biotinylated Fit3 substrate (biotin-VASSDNEYFYVDF) (Cell Signalling Technology Inc.) and ATP in the appropriate assay buffer (Table 1). The reaction was allowed to proceed for 3 hours (FGFR3), 1 hour (VEGFR2, PDGFR-beta) at room temperature on a plate shaker at 700 rpm before being stopped with 35 mM EDTA, pH 8 (FGFR3, VEGFR2) or 55 mM EDTA, pH 8 (PDGFR-beta). 5× detection mix (50 mM HEPES pH 7.5, 0.1% BSA, 11.34 nM Eu-anti-pY (PY20) (PerkinElmer) 74 nM SA-XL665 (Cisbio) for FGFR3, 50 mM HEPES, pH 7.5, 0.1% BSA, 11.34 nM Eu-anti-pY (PY20), 187.5 nM SA-XL665 for VEGFR2 and 50 mM HEPES, pH 7.5, 0.1% BSA, 11.34 nM Eu-anti-pY (PT66) (PerkinElmer), 375 nM SA-XL665 (Cisbio) for PDGFR-beta) was then added to each well and the plate sealed and incubated at room temperature for one hour on a plate shaker at 700 rpm. The plate was then read on a Packard Fusion plate reader or a BMG Pherastar both in TRF mode.

Ba/F3-TEL-FGFR3 cells = molecular target: T2, Ba/F3-TEL-FGFR3 cells (Homo sapiens, UniProt P22607); experiment: Ba/F3-TEL-FGFR3 cell proliferation assay; type: cell-based; settings: 72 hours
T2 construct: fused on or other part: P41212 (Transcription factor ETV6)
T2 sequence (P22607 whole entry, change not shown, the tested form may be a part): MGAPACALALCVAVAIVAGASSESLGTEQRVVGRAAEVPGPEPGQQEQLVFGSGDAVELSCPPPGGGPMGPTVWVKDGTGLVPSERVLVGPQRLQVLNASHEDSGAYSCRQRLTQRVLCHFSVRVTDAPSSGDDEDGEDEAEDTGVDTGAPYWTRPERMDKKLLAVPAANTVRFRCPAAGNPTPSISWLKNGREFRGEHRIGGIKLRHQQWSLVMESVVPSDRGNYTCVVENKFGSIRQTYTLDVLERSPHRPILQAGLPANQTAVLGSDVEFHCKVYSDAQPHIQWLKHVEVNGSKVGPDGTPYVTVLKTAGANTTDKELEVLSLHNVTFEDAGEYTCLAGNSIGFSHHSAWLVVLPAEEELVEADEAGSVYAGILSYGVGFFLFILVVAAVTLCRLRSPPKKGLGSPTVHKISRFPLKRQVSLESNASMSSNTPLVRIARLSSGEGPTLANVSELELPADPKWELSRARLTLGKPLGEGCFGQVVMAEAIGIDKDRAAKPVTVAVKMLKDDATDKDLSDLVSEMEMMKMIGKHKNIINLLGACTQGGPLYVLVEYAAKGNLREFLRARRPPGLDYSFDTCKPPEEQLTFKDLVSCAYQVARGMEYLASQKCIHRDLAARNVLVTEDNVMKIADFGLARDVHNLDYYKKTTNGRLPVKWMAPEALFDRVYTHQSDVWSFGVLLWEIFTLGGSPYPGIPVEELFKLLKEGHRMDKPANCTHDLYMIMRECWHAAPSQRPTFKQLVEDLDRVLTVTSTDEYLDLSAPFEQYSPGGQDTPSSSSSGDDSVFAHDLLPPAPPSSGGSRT
Experimental: (§3) Ba/F3-TEL-FGFR3 & Ba/F3 (WT) Cell Proliferation Assays
(§4) Stably transfected Ba/F3-TEL-FGFR3 cells were plated out into black 96-well tissue culture plates with clear bottoms in RPMI medium containing 10% FBS and 0.25 mg/ml G418 at a density of 5×10^3 cells/well (200 μl per well). The parental wild-type Ba/F3 cells (DSMZ no.: ACC 300) were plated out into black 96-well tissue culture plates with clear bottoms in RPMI medium containing 10% FBS and 2 ng/ml mouse IL-3 (R&D Sysems) at a density of 2.5×10^3 cells/well (200 μl per well). Plates were placed in an incubator overnight before adding the compounds the following day. Dilutions of compounds were made in DMSO starting at 10 mM and were diluted into the wells to give a final DMSO concentration of 0.1% in assay. Compounds were left on the cells for 72 hours before the plates were removed from the incubator and 20 μl of Alamar Blue™ (Biosource) was added to each well. Plates were placed in the incubator for 4-6 hours before reading plates at 535 nm (excitation)/590 nm (emission) on a Fusion plate reader (Packard). Where inhibition is high an IC50 can be determined.

FGFR3 = molecular target: T3, FGFR3 (Homo sapiens, UniProt P22607); experiment: Biological Assays B: FGFR3 in vitro kinase inhibitory activity assay; type: biochemical; settings: 8 μM ATP, read-out: FGFR3 pIC50 (converted)
T3 construct: purchased Upstate
T3 sequence (P22607 23-806): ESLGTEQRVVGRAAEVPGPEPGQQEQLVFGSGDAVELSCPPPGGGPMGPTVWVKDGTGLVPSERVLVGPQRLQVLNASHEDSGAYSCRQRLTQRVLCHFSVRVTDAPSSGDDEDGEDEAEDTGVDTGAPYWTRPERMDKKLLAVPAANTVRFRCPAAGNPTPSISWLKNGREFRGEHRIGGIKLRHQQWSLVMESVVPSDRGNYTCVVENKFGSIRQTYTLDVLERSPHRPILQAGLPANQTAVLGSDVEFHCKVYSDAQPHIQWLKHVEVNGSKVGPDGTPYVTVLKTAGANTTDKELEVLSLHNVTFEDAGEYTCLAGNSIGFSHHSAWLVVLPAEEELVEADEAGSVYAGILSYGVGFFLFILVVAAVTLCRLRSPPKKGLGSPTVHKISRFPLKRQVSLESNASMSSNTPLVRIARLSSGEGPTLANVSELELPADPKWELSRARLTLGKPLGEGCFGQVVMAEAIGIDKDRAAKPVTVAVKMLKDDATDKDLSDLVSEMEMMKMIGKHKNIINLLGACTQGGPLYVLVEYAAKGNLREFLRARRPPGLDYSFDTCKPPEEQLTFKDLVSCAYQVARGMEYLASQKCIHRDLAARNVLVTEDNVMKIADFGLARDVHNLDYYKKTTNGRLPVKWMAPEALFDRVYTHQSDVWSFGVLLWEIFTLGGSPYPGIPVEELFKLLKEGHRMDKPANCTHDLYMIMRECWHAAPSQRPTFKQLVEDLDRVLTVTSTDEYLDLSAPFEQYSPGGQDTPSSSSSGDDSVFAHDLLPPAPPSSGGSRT
Experimental: as §1, §2

[1] = tested on: parental wild-type Ba/F3 cells; experiment: Ba/F3 (WT) cell proliferation assay; type: cell-based; settings: BaF3; 72 hours, 2 ng/ml mouse IL-3; read-out: BAF3_WT pIC50 (converted)
Experimental: as §3, §4

Chain of FGFR3 (h) (P22607 23-806): as above

Row | Compound | IC50 (FGFR3 (h)) | melting point | other results
1 | COc1cc(OC)cc(C(CCNCC(F)(F)F)c2ccc3ncc(-c4cnn(C)c4)nc3c2)c1.Cl (stereo not drawn) [Compound 33] | 0.138 µM | 162 °C | 
2 | COc1cc(OC)cc(/C(=C\CNCC(F)(F)F)c2ccc3ncc(-c4cnn(C)c4)nc3c2)c1 [Compound 14, {(Z)-3-(3,5-Dimethoxy-phenyl)-3-[3-(1-methyl-1H-pyrazol-4-yl)-quinoxalin-6-yl]-allyl}-(2,2,2-trifluoro-ethyl)-amine] | 0.00468 µM |  | 
3 | COc1cc(OC)cc(/C(=C\C#N)c2ccc3ncc(-c4cnn(C)c4)nc3c2)c1 [Compound 4] | 0.0363 µM | 204 °C | 
4 | COc1cc(OC)cc(/C(=C/CN(C)C)c2ccc3ncc(-c4cnn(C)c4)nc3c2)c1 [Compound 34] | 0.107 µM | 177 °C | 
5 | COc1cc(OC)cc(C(=O)c2ccc3ncc(-c4cnn(C)c4)nc3c2)c1 [Compound 2] | 0.0661 µM | 162 °C | 
6 | CNCC(O)(c1cc(OC)cc(OC)c1)c1ccc2ncc(-c3cnn(C)c3)nc2c1.Cl (single isomer, unassigned) [Compound 37] | 0.537 µM | 174 °C | 
7 | COc1cc(OC)cc(/C(=C/C#N)c2ccc3ncc(-c4cnn(C)c4)nc3c2)c1 [Compound 3] | 2.19 µM | 223 °C | 
8 | COc1cc(OC)cc(/C(=C\CNC(C)C)c2ccc3ncc(-c4cnn(C)c4)nc3c2)c1 [Compound 8, {(Z)-3-(3,5-Dimethoxy-phenyl)-3-[3-(1-methyl-1H-pyrazol-4-yl)-quinoxalin-6-yl]-allyl}-isopropyl-amine] | 0.00871 µM | 164 °C | 
9 | COc1cc(OC)cc(/C(=C\CN(C)C)c2ccc3ncc(-c4cnn(C)c4)nc3c2)c1 [Compound 10, {(Z)-3-(3,5-Dimethoxy-phenyl)-3-[3-(1-methyl-1H-pyrazol-4-yl)-quinoxalin-6-yl]-allyl}-dimethyl-amine] | 0.00912 µM | 164 °C | 
10 | COc1cc(OC)cc(C2(c3ccc4ncc(-c5cnn(C)c5)nc4c3)CC2)c1 [Compound 30] | 0.0437 µM | 140 °C | IC50 (FGFR3): 0.02 µM; IC50 (VEGFR2): 0.282 µM
11 | Cn1cc(-c2cnc3ccc(C(O)c4ccccc4)cc3n2)cn1 (stereo not drawn) [Compound 28] | 3.72 µM |  | 
12 | COc1cc(OC)cc(C(CCN2CCCC2=O)c2ccc3ncc(-c4cnn(C)c4)nc3c2)c1.Cl (stereo not drawn) [Compound 7] | ~0.0126 µM |  | 
13 | CN(C)CCC(c1ccccc1)c1ccc2ncc(-c3cnn(C)c3)nc2c1 (stereo not drawn) [Compound 35] | > 1 µM |  | 
14 | CNCC(O)(c1cc(OC)cc(OC)c1)c1ccc2ncc(-c3cnn(C)c3)nc2c1.Cl (single isomer, unassigned) [Compound 38] | > 1 µM | 169 °C | 

Now from value to compound, other results behind:

Row | IC50 (FGFR3 (h)) | melting point | Compound | other results
15 | 0.257 µM |  | COc1cc(OC)cc(C(NCCNC(C)C)c2ccc3ncc(-c4cnn(C)c4)nc3c2)c1.Cl (single isomer, unassigned) [Compound 24] | 
16 | > 1 µM | 186 °C | COc1cc(OC)cc(C(CC(=O)NC(C)C)c2ccc3ncc(-c4cnn(C)c4)nc3c2)c1 (stereo not drawn) [Compound 23] | 
17 | 0.676 µM |  | COc1cc(OC)cc(C(O)(CNCCNC(C)C)c2ccc3ncc(-c4cnn(C)c4)nc3c2)c1 (single isomer, unassigned) [Compound 6] | 
18 | > 1 µM |  | COc1cc(OC)cc(C(NCCNC(C)C)c2ccc3ncc(-c4cnn(C)c4)nc3c2)c1.Cl (single isomer, unassigned) [Compound 39] | 
19 | 0.0437 µM |  | COc1cc(OC)cc(C(CC#N)c2ccc3ncc(-c4cnn(C)c4)nc3c2)c1 (stereo not drawn) [Compound 18] | IC50 (VEGFR2): 6.31 µM
20 | ~0.912 µM |  | COc1cc(OC)cc(C(CCNC(C)C)c2ccc3ncc(-c4cnn(C)c4)nc3c2)c1 (single isomer, unassigned) [Compound 32a] | 
21 | 0.123 µM |  | COc1cc(OC)cc(/C(=C/CNC(C)C)c2ccc3ncc(-c4cnn(C)c4)nc3c2)c1 [Compound 9] | 
22 | 0.269 µM | 140 °C | COc1cc(OC)cc(C(CCCN)c2ccc3ncc(-c4cnn(C)c4)nc3c2)c1.Cl (stereo not drawn) [Compound 40] | 
23 | 0.0513 µM | 114 °C | COc1cc(OC)cc(C(CCO)c2ccc3ncc(-c4cnn(C)c4)nc3c2)c1 (stereo not drawn) [Compound 22] | IC50 (VEGFR2): 3.98 µM; BAF3_TEL_FGFR3 pIC50 (Ba/F3-TEL-FGFR3 cells): 6.85
24 | 0.0355 µM | 148 °C | COc1cc(OC)cc(C(CCNC(C)C)c2ccc3ncc(-c4cnn(C)c4)nc3c2)c1.Cl (stereo not drawn) [Compound 29, {3-(3,5-Dimethoxy-phenyl)-3-[3-(1-methyl-1H-pyrazol-4-yl)-quinoxalin-6-yl]-propyl}-isopropyl-amine] | IC50 (FGFR3): 0.02 µM; IC50 (VEGFR2): 1 µM; BAF3_TEL_FGFR3 pIC50 (Ba/F3-TEL-FGFR3 cells): 7.7; IC50 [1]: 5.01 µM
25 | 0.0676 µM |  | COc1cc(OC)cc(C(CCN(C)C)c2ccc3ncc(-c4cnn(C)c4)nc3c2)c1.Cl (stereo not drawn) [Compound 21] | 
26 | 0.575 µM |  | COc1cc(OC)cc(C(O)(CNCCNC(C)C)c2ccc3ncc(-c4cnn(C)c4)nc3c2)c1 (single isomer, unassigned) [Compound 5] | 
27 | 0.708 µM |  | COc1cc(OC)cc(C(CC(C)(O)CNC(C)C)c2ccc3ncc(-c4cnn(C)c4)nc3c2)c1.Cl (stereo not drawn) [Compound 25] | 
28 | 0.0214 µM |  | COc1cc(OC)cc(C(CCNC(C)C)c2ccc3ncc(-c4cnn(C)c4)nc3c2)c1 (single isomer, unassigned) [Compound 19a] | 
29 | 0.0617 µM | 211 °C | COc1cc(OC)cc(C(CCN)c2ccc3ncc(-c4cnn(C)c4)nc3c2)c1.Cl (stereo not drawn) [Compound 20] | IC50 (VEGFR2): 3.16 µM
